The subject of this data set is rodent carcinogenicity bioassays, tumor incidence. Put plainly: CCRIS carcinogenicity studies. In a few lines: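 Archive of carcinogenicity, mutagenicity, tumor promotion and tumor inhibition results drawn from journals, NCI reports and other sources, expert-reviewed; covers 1985-2011 and is no longer updated.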

The values that follow come from PubChem BioAssay AID1259411 (Chemical Carcinogenesis Research Information System (CCRIS), 2018).

Each structure is given as a SMILES string. Active and inactive are the calls of the source. How the calls were made is not given here.

`O=C(O)C(Cl)Br` (centres undefined): the carcinogen call is “active; positive. authors describe as clear evidence” (Species: Mouse, Strain/Sex: B6C3F1 / Female (50/Group), Route: Oral, Dose: 0, 250, 500, 1,000 mg/l in drinking water for 105 wk, Dose: 0, 250, 500, 1,000 mg/l in drinking water for 105 wk, Tumor Site: Type of Lesion: Liver: hepatocellular neoplasms); “active; positive. authors describe as clear evidence” (Species: Mouse, Strain/Sex: B6C3F1 / Male (50/Group), Route: Oral, Dose: 0, 250, 500, 1,000 mg/l in drinking water for 105 wk, Dose: 0, 250, 500, 1,000 mg/l in drinking water for 105 wk, Tumor Site: Type of Lesion: Liver: hepatocellular neoplasms and hepatoblastoma); “active; positive (some of the p values do not reach significance.) authors describe as c” (Species: Rat, Strain/Sex: F344/N / Female (50/Group), Route: Oral, Dose: 0, 250, 500, 1,000 mg/l in drinking water for 105 wk, Dose: 0, 250, 500, 1,000 mg/l in drinking water for 105 wk, Tumor Site: Type of Lesion: Large Intestine: adenoma, Mammary Gland: multiple fibroadenomas, Pancreatic Islet: adenoma (may have been related), Tumor Site: Type of Lesion: Large Intestine: adenoma, Mammary Gland: multiple fibroadenomas, Pancreatic Islet: adenoma (may have been related)); “active; positive. authors describe as clear evidence” (Species: Rat, Strain/Sex: F344/N / Male (50/Group), Route: Oral, Dose: 0, 250, 500, 1,000 mg/l in drinking water for 105 wk, Dose: 0, 250, 500, 1,000 mg/l in drinking water for 105 wk, Tumor Site: Type of Lesion: Mesothelium: malignant mesothelioma, Large Intestine: adenoma, Pancreatic Islet: adenoma (may have been related), Tumor Site: Type of Lesion: Mesothelium: malignant mesothelioma, Large Intestine: adenoma, Pancreatic Islet: adenoma (may have been related)).
On to `OC[C@@H](O)[C@@H](O)CO`, for which the carcinogen call was “inactive; negative” (Species: DOG, Strain/Sex: BEAGLE/FEMALE, Route: ORAL, Dose: 0, 2, 5, 10% IN DIET FOR 53 WK (STUDY DURATION: 53 WK), Dose: 0, 2, 5, 10% IN DIET FOR 53 WK (STUDY DURATION: 53 WK)); “inactive; negative” (Species: DOG, Strain/Sex: BEAGLE/MALE, Route: ORAL, Dose: 0, 2, 5, 10% IN DIET FOR 53 WK (STUDY DURATION: 53 WK), Dose: 0, 2, 5, 10% IN DIET FOR 53 WK (STUDY DURATION: 53 WK)); “inactive; negative” (Species: RAT, Strain/Sex: WISTAR/FEMALE, Route: ORAL, Dose: 0, 2, 5, 10% IN DIET FOR 104 WK (STUDY DURATION: 104 WK), Dose: 0, 2, 5, 10% IN DIET FOR 104 WK (STUDY DURATION: 104 WK)); “inactive; negative” (Species: RAT, Strain/Sex: WISTAR/MALE, Route: ORAL, Dose: 0, 2, 5, 10% IN DIET FOR 104 WK (STUDY DURATION: 104 WK), Dose: 0, 2, 5, 10% IN DIET FOR 104 WK (STUDY DURATION: 104 WK)).
Regarding `ClCCCl`, the carcinogen call runs as follows: (Species: MOUSE, Strain/Sex: B6C3F1/FEMALE, Route: GAVAGE, Dose: 0, 149, 299 MG/KG TWA,5 D/WK FOR 78 WK (STUDY DURATION: 91 WK), Dose: 0, 149, 299 MG/KG TWA,5 D/WK FOR 78 WK (STUDY DURATION: 91 WK), Tumor Site: Type of Lesion: LUNG: ALVEOLAR/BRONCHIOLAR ADENOMA, UTERUS (ENDOMETRIUM): STROMAL POLYP, STROMAL SARCOMA, MAMMARY GLAND: ADENOCARCINOMA, Tumor Site: Type of Lesion: LUNG: ALVEOLAR/BRONCHIOLAR ADENOMA, UTERUS (ENDOMETRIUM): STROMAL POLYP, STROMAL SARCOMA, MAMMARY GLAND: ADENOCARCINOMA) “active; positive”; (Species: MOUSE, Strain/Sex: B6C3F1/MALE, Route: GAVAGE, Dose: 0, 97, 195 MG/KG TWA, 5 D/WK FOR 78 WK (STUDY DURATION: 90-91 WK), Dose: 0, 97, 195 MG/KG TWA, 5 D/WK FOR 78 WK (STUDY DURATION: 90-91 WK), Tumor Site: Type of Lesion: LUNG: ALVEOLAR/BRONCHIOLAR ADENOMA) “active; positive”; (Species: MOUSE, Strain/Sex: EU-PIM-1/FEMALE, Route: GAVAGE, Dose: 0, 100, 300 MG/KG 1/D FOR 40 WK (STUDY DURATION: 40 WK), Dose: 0, 100, 300 MG/KG 1/D FOR 40 WK (STUDY DURATION: 40 WK), Tumor Site: Type of Lesion: LYMPHATIC SYSTEM: LYMPHOMA) “active; positive”; (Species: MOUSE, Strain/Sex: EU-PIM-1/MALE, Route: GAVAGE, Dose: 0, 100, 300 MG/KG 1/D FOR 40 WK (STUDY DURATION: 40 WK), Dose: 0, 100, 300 MG/KG 1/D FOR 40 WK (STUDY DURATION: 40 WK)) “inactive; negative”; (Species: MOUSE, Strain/Sex: ICR/FEMALE, Route: DERMAL, Dose: 42, 126 MG/APPL/MOUSE IN 0.2 ML ACETONE 3/WK, Tumor Site: Type of Lesion: LUNG: BENIGN PAPILLOMA) “active; positive”; (Species: RAT, Strain/Sex: OSBORNE-MENDEL/FEMALE, Route: GAVAGE, Dose: 0, 47, 95 MG/KG TWA, 5 D/WK FOR 69 WK (STUDY DURATION: 93-110 WK), Dose: 0, 47, 95 MG/KG TWA, 5 D/WK FOR 69 WK (STUDY DURATION: 93-110 WK), Tumor Site: Type of Lesion: MAMMARY GLAND: ADENOCARCINOMA OR FIBROADENOMA) “active; positive”. The carcinogen call by setting is: (Species: RAT, Strain/Sex: OSBORNE-MENDEL/MALE, Route: GAVAGE, Dose: 0, 47, 95 MG/KG TWA, 5 D/WK FOR 69 WK (STUDY DURATION: 101-110 WK), Dose: 0, 47, 95 MG/KG TWA, 5 D/WK FOR 69 WK (STUDY DURATION: 101-110 WK), Tumor Site: Type of Lesion: INTEGUMENTARY SYSTEM (SUBCUTANEOUS TISSUE): FIBROMA, FORESTOMACH: SQUAMOUS CELL CARCINOMA, BLOOD VESSELS: HEMANGIOSARCOM, Tumor Site: Type of Lesion: INTEGUMENTARY SYSTEM (SUBCUTANEOUS TISSUE): FIBROMA, FORESTOMACH: SQUAMOUS CELL CARCINOMA, BLOOD VESSELS: HEMANGIOSARCOM) “active; positive”; (Species: RAT, Strain/Sex: SPRAGUE-DAWLEY/FEMALE, Route: INHALATION, Dose: 0, 5, 10, 50, 150, 250 PPM IN AIR 7 HR/D 5 D/WK FOR 78 WK (STUDY DURATION: LIFETIME), Dose: 0, 5, 10, 50, 150, 250 PPM IN AIR 7 HR/D 5 D/WK FOR 78 WK (STUDY DURATION: LIFETIME), Tumor Site: Type of Lesion: [BRAIN WAS ONLY SITE EVALUATED]) “inactive; negative”; (Species: RAT, Strain/Sex: SPRAGUE-DAWLEY/FEMALE, Route: INHALATION, Dose: 0, 50 PPM 7 HR/D 5 D/WK FOR 2 YR (STUDY DURATION: 2 YR)) “inactive; negative”; (Species: RAT, Strain/Sex: SPRAGUE-DAWLEY/MALE, Route: INHALATION, Dose: 0, 5, 10, 50, 150, 250 PPM IN AIR 7 HR/D 5 D/WK FOR 78 WK (STUDY DURATION: LIFETIME), Dose: 0, 5, 10, 50, 150, 250 PPM IN AIR 7 HR/D 5 D/WK FOR 78 WK (STUDY DURATION: LIFETIME), Tumor Site: Type of Lesion: [BRAIN WAS ONLY SITE EVALUATED]) “inactive; negative”; (Species: RAT, Strain/Sex: SPRAGUE-DAWLEY/MALE, Route: INHALATION, Dose: 0, 50 PPM 7 HR/D 5 D/WK FOR 2 YR (STUDY DURATION: 2 YR)) “inactive; negative”.
